By pKi is commonly meant the negative decadic logarithm of the Ki, by convention in mol/L.

pKi: −log10 of the molar value.

The record followed here is BindingDB's records for doi:10.7270/Q20863RR (Nmmlsc, 2010).

The target in the assay is T1, Regulator of G-protein signaling 7 (Homo sapiens, UniProt P49802).
T1 sequence (P49802 whole entry): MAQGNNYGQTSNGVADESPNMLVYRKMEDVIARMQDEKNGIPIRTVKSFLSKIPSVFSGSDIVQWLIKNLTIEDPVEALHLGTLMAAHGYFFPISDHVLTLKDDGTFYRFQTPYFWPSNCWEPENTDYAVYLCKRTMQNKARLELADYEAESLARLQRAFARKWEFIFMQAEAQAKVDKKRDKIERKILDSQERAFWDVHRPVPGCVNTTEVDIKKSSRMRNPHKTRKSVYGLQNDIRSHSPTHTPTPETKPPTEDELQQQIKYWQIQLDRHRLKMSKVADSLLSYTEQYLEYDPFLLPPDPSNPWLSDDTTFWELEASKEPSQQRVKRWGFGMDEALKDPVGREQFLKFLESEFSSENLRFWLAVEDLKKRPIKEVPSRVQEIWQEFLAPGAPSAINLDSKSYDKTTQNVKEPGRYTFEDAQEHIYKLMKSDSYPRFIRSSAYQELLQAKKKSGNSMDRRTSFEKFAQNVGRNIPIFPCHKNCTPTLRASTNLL
Briefly: small molecules altering RGS7 interaction with Galphao – biochemical, multiplexed bead flow cytometry, SAR compounds, SAR follow-up (AID 2296).

`NS(=O)(=O)c1ccc(N=NCc2ccc(O)c(O)c2O)c([N+](=O)[O-])c1` [4-[[(E)-(2,3-dihydroxy-4-oxo-1-cyclohexa-2,5-dienylidene)methyl]hydrazo]-3-nitrobenzenesulfonamide] gave a pKi of 6.92.
